Assay: method code SF-AS, from DOI: 10.1111/j.2042-7158.1993.tb07096.x, PMID: 7901370
Details: pH 7.4

SMILES	logD
O=S(=O)(NC(=S)N1CCCCC1)c1cnccc1NC1CCCCC1	0.85
CC(C)NC(=S)NS(=O)(=O)c1cnccc1NC1CCCCCCC1	1.3
O=S(=O)(NC(=S)NC1CCCCC1)c1cnccc1NC1CCCCCC1	1.81
CCNC(=S)NS(=O)(=O)c1cnccc1NC1CCCCCCC1	0.96
O=S(=O)(NC(=S)N1CCCCC1)c1cnccc1NC1CCCCCCC1	1.6
O=S(=O)(NC(=S)N1CCCCC1)c1cnccc1NC1CCCCCC1	1.25
O=S(=O)(NC(=S)NC1CCCCC1)c1cnccc1NC1CCCCCCC1	2.14
CCNC(=S)NS(=O)(=O)c1cnccc1NC1CCCCC1	0.2

From the SangsterLogP compilation
